In patent US12473304B2, “Heterocyclic PAD4 inhibitors” (BRISTOL-MYERS SQUIBB COMPANY, priority 2020, dated 2025) one finds IC50 data, which are given here for 23 molecules.

Each structure is given as a SMILES string.

The target in this assay is human PAD4 (hPAD4) (Homo sapiens (Human), UniProt Q9UM07). The assay can be described thus: RFMS Human PAD4 Functional Assay 1. In kind it is biochemical. The settings on record: RFMS assay 1; 5 nM hPAD4, 250 μM BAEE substrate, 50 μM calcium, 37° C. In outline: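 Recombinant hPAD4 (5 nM) was preincubated with compound (top 50 μM, 0.5% DMSO) for 30 min at 37 °C, then reacted with 250 μM BAEE for 90 min at 37 °C in pH 7.5 HEPES buffer with 50 μM calcium and 5 μM TPEN. Product was derivatized with phenyl glyoxal and quantified by RapidFire MS.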
Sequence of human PAD4 (hPAD4) (Q9UM07 whole entry): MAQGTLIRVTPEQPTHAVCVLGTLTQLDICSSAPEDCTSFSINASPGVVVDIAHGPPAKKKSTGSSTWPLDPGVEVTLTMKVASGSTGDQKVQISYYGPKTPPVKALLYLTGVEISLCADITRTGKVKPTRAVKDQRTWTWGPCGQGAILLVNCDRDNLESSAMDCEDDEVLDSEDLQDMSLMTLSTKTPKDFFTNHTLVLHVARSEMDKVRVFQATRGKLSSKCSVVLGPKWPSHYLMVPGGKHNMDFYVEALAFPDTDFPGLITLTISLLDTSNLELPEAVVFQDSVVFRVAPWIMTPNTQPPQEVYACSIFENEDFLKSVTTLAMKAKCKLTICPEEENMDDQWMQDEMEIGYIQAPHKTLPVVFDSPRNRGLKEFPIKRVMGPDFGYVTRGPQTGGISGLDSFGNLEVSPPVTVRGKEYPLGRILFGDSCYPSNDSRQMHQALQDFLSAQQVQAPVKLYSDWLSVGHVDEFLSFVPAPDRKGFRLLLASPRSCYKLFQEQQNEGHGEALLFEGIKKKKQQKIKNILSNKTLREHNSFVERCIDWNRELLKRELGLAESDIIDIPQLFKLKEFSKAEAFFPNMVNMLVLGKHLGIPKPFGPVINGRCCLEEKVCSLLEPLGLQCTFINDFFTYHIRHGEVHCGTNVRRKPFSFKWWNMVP
As usually defined, the IC50 is the concentration that inhibits the measured activity by half. In the case of `Cc1c(-c2cc3ccc(-c4ccc5c(c4)CNC5=O)nc3n2CC2CC2)nn2cc(C(=O)N3C[C@H](N)C[C@@H](F)C3)ccc12` [Example 81, 5-(2-(6-((3R,5R)-3-Amino-5-fluoropiperidine-1-carbonyl)-3-methylpyrazolo[1,5-a]pyridin-2-yl)-1-(cyclopropylmethyl)-1H-pyrrolo[2,3-b]pyridin-6-yl)isoindolin-1-one], the IC50 worked out at 384 nM.
For the molecule `Cc1ccc2cc(-c3nn4cc(C(=O)N5C[C@H](N)C[C@@H](F)C5)ccc4c3C)n(CC3CC3)c2n1` [Example 82, ((3R,5R)-3-Amino-5-fluoropiperidin-1-yl)(2-(1-(cyclopropylmethyl)-6-methyl-1H-pyrrolo[2,3-b]pyridin-2-yl)-3-methylpyrazolo[1,5-a]pyridin-6-yl)methanone], the IC50 was 368 nM.
Regarding `Cc1c(-c2cc3ccc(-c4ccc5c(c4)C(=O)NC5)nc3n2CC2CC2)nn2cc(C(=O)N3C[C@H](N)C[C@@H](F)C3)ccc12` [Example 83, 6-(2-(6-((3R,5R)-3-Amino-5-fluoropiperidine-1-carbonyl)-3-methylpyrazolo[1,5-a]pyridin-2-yl)-1-(cyclopropylmethyl)-1H-pyrrolo[2,3-b]pyridin-6-yl)isoindolin-1-one], the IC50 amounted to 384 nM.
Consider `Cc1c(-c2cc3ccc(-c4ccc(C(N)=O)c(F)c4)nc3n2CC2CC2)nn2cc(C(=O)N3C[C@H](N)C[C@@H](F)C3)ccc12` [Example 84, 4-(2-(6-((3R,5R)-3-Amino-5-fluoropiperidine-1-carbonyl)-3-methylpyrazolo[1,5-a]pyridin-2-yl)-1-(cyclopropylmethyl)-1H-pyrrolo[2,3-b]pyridin-6-yl)-2-fluorobenzamide], for which the IC50 is 610 nM.
Consider `Cc1c(-c2cc3ccc(-c4ccc(C(N)=O)c(Cl)c4)nc3n2CC2CC2)nn2cc(C(=O)N3C[C@H](N)C[C@@H](F)C3)ccc12` [Example 85, 4-(2-(6-((3R,5R)-3-Amino-5-fluoropiperidine-1-carbonyl)-3-methylpyrazolo[1,5-a]pyridin-2-yl)-1-(cyclopropylmethyl)-1H-pyrrolo[2,3-b]pyridin-6-yl)-2-chlorobenzamide], for which the IC50 was found to be 327 nM.
To `Cc1c(-c2cc3ccc(-c4cccc(O)c4F)nc3n2CC2CC2)nn2cc(C(=O)N3C[C@H](N)C[C@@H](F)C3)ccc12` [Example 86, ((3R,5R)-3-Amino-5-fluoropiperidin-1-yl)(2-(1-(cyclopropylmethyl)-6-(2-fluoro-3-hydroxyphenyl)-1H-pyrrolo[2,3-b]pyridin-2-yl)-3-methylpyrazolo[1,5-a]pyridin-6-yl)methanone] belongs 219 nM.
To `COC1CCN(c2ccc3cc(-c4nn5cc(C(=O)N6C[C@H](N)C[C@@H](F)C6)ccc5c4C)n(CC4CC4)c3n2)CC1` [Example 87, ((3R,5R)-3-Amino-5-fluoropiperidin-1-yl)(2-(1-(cyclopropylmethyl)-6-(4-methoxypiperidin-1-yl)-1H-pyrrolo[2,3-b]pyridin-2-yl)-3-methylpyrazolo[1,5-a]pyridin-6-yl)methanone] belongs 2320 nM; to `Cc1c(-c2cc3ccc(N4CCC(O)CC4)nc3n2CC2CC2)nn2cc(C(=O)N3C[C@H](N)C[C@@H](F)C3)ccc12` [Example 88, ((3R,5R)-3-Amino-5-fluoropiperidin-1-yl)(2-(1-(cyclopropylmethyl)-6-(4-hydroxypiperidin-1-yl)-1H-pyrrolo[2,3-b]pyridin-2-yl)-3-methylpyrazolo[1,5-a]pyridin-6-yl)methanone], 1680 nM.
On to `Cc1c(-c2cc3ccc(-c4ccc5c(c4)C(=O)NC5)cc3n2CC2CC2)nn2cc(C(=O)N3CC4CCC3[C@@H]4N)ccc12` (stereo partly drawn) [Example 89, 6-(2-(6-((7R)-7-Amino-2-azabicyclo[2.2.1]heptane-2-carbonyl)-3-methylpyrazolo[1,5-a]pyridin-2-yl)-1-(cyclopropylmethyl)-1H-indol-6-yl)isoindolin-1-one], for which the IC50 worked out at 48 nM.
`Cc1c(-c2cc3ccc(-c4ccc5c(c4)CNC5=O)cc3n2CC2CC2)nn2cc(C(=O)N3CC4CCC3[C@@H]4N)ccc12` (stereo partly drawn) [Example 90, 5-(2-(6-((7R)-7-Amino-2-azabicyclo[2.2.1]heptane-2-carbonyl)-3-methylpyrazolo[1,5-a]pyridin-2-yl)-1-(cyclopropylmethyl)-1H-indol-6-yl)isoindolin-1-one]: the IC50 turned out to be 12 nM.
Regarding `Cc1c(-c2cc3ccc(N4CC(F)(CO)C4)cc3n2CC2CC2)nn2cc(C(=O)N3CC4CCC3[C@@H]4N)ccc12` (stereo partly drawn) [Example 91, ((7R)-7-Amino-2-azabicyclo[2.2.1]heptan-2-yl)(2-(1-(cyclopropylmethyl)-6-(3-fluoro-3-(hydroxymethyl)azetidin-1-yl)-1H-indol-2-yl)-3-methylpyrazolo[1,5-a]pyridin-6-yl)methanone], the IC50 was 602 nM.
On to `Cc1c(-c2cc3ccc(-c4cccc(O)c4F)cc3n2CC2CC2)nn2cc(C(=O)N3C[C@H](N)C[C@@H](F)C3)ccc12` [Example 92, ((3R,5R)-3-Amino-5-fluoropiperidin-1-yl)(2-(1-(cyclopropylmethyl)-6-(2-fluoro-3-hydroxyphenyl)-1H-indol-2-yl)-3-methylpyrazolo[1,5-a]pyridin-6-yl)methanone], for which the IC50 is 672 nM.
Consider `Cc1c(-c2cc3ccc(-c4ccc(C(N)=O)c(F)c4)cc3n2CC2CC2)nn2cc(C(=O)N3C[C@H](N)C[C@@H](F)C3)ccc12` [Example 93, 4-(2-(6-((3R,5R)-3-Amino-5-fluoropiperidine-1-carbonyl)-3-methylpyrazolo[1,5-a]pyridin-2-yl)-1-(cyclopropylmethyl)-1H-indol-6-yl)-2-fluorobenzamide], for which the IC50 turned out to be 220 nM.
Take `Cc1c(-c2cc3ccc(-c4ccc(O)c(F)c4)cc3n2CC2CC2)nn2cc(C(=O)N3C[C@H](N)C[C@@H](F)C3)ccc12` [Example 94, ((3R,5R)-3-Amino-5-fluoropiperidin-1-yl)(2-(1-(cyclopropylmethyl)-6-(3-fluoro-4-hydroxyphenyl)-1H-indol-2-yl)-3-methylpyrazolo[l,5-a]pyridin-6-yl)methanone]: the IC50 was 934 nM.
In the case of `Cc1c(-c2cc3ccc(-c4ccc5c(c4)CNC5=O)cc3n2CC2CC2)nn2cc(C(=O)N3C[C@H](N)C[C@@H](F)C3)ccc12` [Example 95, 5-(2-(6-((3R,5R)-3-Amino-5-fluoropiperidine-1-carbonyl)-3-methylpyrazolo[1,5-a]pyridin-2-yl)-1-(cyclopropylmethyl)-1H-indol-6-yl)isoindolin-1-one], the IC50 was 133 nM.
In the case of `Cc1c(-c2cc3ccc(-c4ccc5c(c4)C(=O)NC5)cc3n2CC2CC2)nn2cc(C(=O)N3C[C@H](N)C[C@@H](F)C3)ccc12` [Example 96, 6-(2-(6-((3R,5R)-3-Amino-5-fluoropiperidine-1-carbonyl)-3-methylpyrazolo[1,5-a]pyridin-2-yl)-1-(cyclopropylmethyl)-1H-indol-6-yl)isoindolin-1-one] it was 588 nM; in that of `COc1cc(C(=O)N2C[C@H](N)C[C@@H](F)C2)cn2nc(-c3cc4ccc(C(C)(C)O)cc4n3CC3CC3)c(C)c12` [Example 98, ((3R,5R)-3-Amino-5-fluoropiperidin-1-yl)(2-(1-(cyclopropylmethyl)-6-(2-hydroxypropan-2-yl)-1H-indol-2-yl)-4-methoxy-3-methylpyrazolo[1,5-a]pyridin-6-yl)methanone], 14 nM.
As to `COc1cc(C(=O)N2C[C@H](N)C[C@@H](F)C2)cn2nc(-c3cc4ccc(C(C)(O)C(F)(F)F)cc4n3CC3CC3)c(C)c12` (stereo partly drawn) [Example 99, ((3R,5R)-3-Amino-5-fluoropiperidin-1-yl)(2-(1-(cyclopropylmethyl)-6-(1,1,1-trifluoro-2-hydroxypropan-2-yl)-1H-indol-2-yl)-4-methoxy-3-methylpyrazolo[1,5-a]pyridin-6-yl)methanone], the concentration for half-maximal inhibition (IC50) came out at 307 nM.
With `Cc1c(-c2cc3ccc(C(C)(C)O)cc3n2CC2CC2)nn2cc(C(=O)N3CC4CCC3[C@@H]4N)ccc12` (stereo partly drawn) [Example 100, ((7R)-7-Amino-2-azabicyclo[2.2.1]heptan-2-yl)(2-(1-(cyclopropylmethyl)-6-(2-hydroxypropan-2-yl)-1H-indol-2-yl)-3-methylpyrazolo[1,5-a]pyridin-6-yl)methanone], the IC50 came out at 36 nM.
`Cc1c(-c2cc3ccc(C(C)(O)C(F)(F)F)cc3n2CC2CC2)nn2cc(C(=O)N3CC4CCC3[C@@H]4N)ccc12` (stereo partly drawn) [Example 101, ((7R)-7-Amino-2-azabicyclo[2.2.1]heptan-2-yl)(2-(1-(cyclopropylmethyl)-6-(1,1,1-trifluoro-2-hydroxypropan-2-yl)-1H-indol-2-yl)-3-methylpyrazolo[1,5-a]pyridin-6-yl)methanone]: the IC50 is 11 nM.
In the case of `Cc1c(-c2cc3ccc(C(C)(C)O)nc3n2CC2CC2)nn2cc(C(=O)N3CC4CCC3[C@@H]4N)ccc12` (stereo partly drawn) [Example 102, ((7R)-7-Amino-2-azabicyclo[2.2.1]heptan-2-yl)(2-(1-(cyclopropylmethyl)-6-(2-hydroxypropan-2-yl)-1H-pyrrolo[2,3-b]pyridin-2-yl)-3-methylpyrazolo[1,5-a]pyridin-6-yl)methanone] it was 12 nM; in that of `Cc1c(-c2cc3ccc(C(C)(O)C(F)(F)F)nc3n2CC2CC2)nn2cc(C(=O)N3CC4CCC3[C@@H]4N)ccc12` (stereo partly drawn) [Example 103, ((7R)-7-Amino-2-azabicyclo[2.2.1]heptan-2-yl)(2-(1-(cyclopropylmethyl)-6-(1,1,1-trifluoro-2-hydroxypropan-2-yl)-1H-pyrrolo[2,3-b]pyridin-2-yl)-3-methylpyrazolo[1,5-a]pyridin-6-yl)methanone], 34 nM; in that of `Cc1c(-c2cc3ccc(C(C)O)nc3n2CC2CC2)nn2cc(C(=O)N3CC4CCC3[C@@H]4N)ccc12` (stereo partly drawn) [Example 104, ((7R)-7-Amino-2-azabicyclo[2.2.1]heptan-2-yl)(2-(1-(cyclopropylmethyl)-6-(1-hydroxyethyl)-1H-pyrrolo[2,3-b]pyridin-2-yl)-3-methylpyrazolo[1,5-a]pyridin-6-yl)methanone], 25 nM.
